Our source for the IC50 values is patent USRE47221E1, “Tricyclic compounds” (AbbVie Inc., priority 2009, dated 2019).

The target in this assay is T1, Jak3 (Homo sapiens, UniProt P52333).
T1 construct: Jak3 enzyme (aa 811-1103); expressed in SF9 cells as a GST fusion; GST; made in house; host or cells: SF9 insect cells
T1 sequence (P52333 811-1103): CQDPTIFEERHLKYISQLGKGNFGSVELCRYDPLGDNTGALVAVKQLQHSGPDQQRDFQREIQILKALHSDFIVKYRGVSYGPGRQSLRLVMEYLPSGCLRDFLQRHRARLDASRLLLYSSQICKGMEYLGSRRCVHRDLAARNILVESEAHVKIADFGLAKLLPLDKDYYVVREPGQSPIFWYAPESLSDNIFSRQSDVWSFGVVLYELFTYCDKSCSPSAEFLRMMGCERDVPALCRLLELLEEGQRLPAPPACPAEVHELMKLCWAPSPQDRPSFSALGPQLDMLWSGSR
Put plainly: Jak3 enzyme data for selected compounds. In kind it is biochemical.
As a reminder, the IC50 is the point on the concentration scale where inhibition reaches its midpoint. `O=S(=O)(CCC(F)(F)F)NC[C@H]1CC[C@H](c2ncc3cnc4[nH]ccc4n23)C1` (single isomer, unassigned) [AA.1.63] gave an IC50 of over 1000 nM.

Compound `O=C(N1CCC[C@@H](c2cnc3cnc4[nH]ccc4n23)C1)N1CC(F)(F)C1` (single isomer, unassigned) [AA.1.6, (3-(3H-imidazo[1,2-a]pyrrolo[2,3-e]pyrazin-8-yl)piperidin-1-yl)(3,3-difluoroazetidin-1-yl)methanone] displayed an IC50 of under 100 nM.

For `CC[C@@H]1C[C@H](NS(=O)(=O)CCC(F)(F)F)C[C@@H]1c1cnc2cnc3[nH]ccc3n12` (single isomer, unassigned) [AA.1.77, N-(3-ethyl-4-(3H-imidazo[1,2-a]pyrrolo[2,3-e]pyrazin-8-yl)cyclopentyl)-3,3,3-trifluoropropane-1-sulfonamide], the IC50 was under 100 nM.

The compound `CC[C@@H]1C[C@H](NS(=O)(=O)C2CC2)C[C@@H]1c1nnc2cnc3[nH]cc(C#N)c3n12` [LL.1.3] yielded an IC50 of over 1000 nM.

As to `O=S(=O)(CCC(F)(F)F)N1CC2CN(c3ncc4cnc5[nH]ccc5n34)CC2C1` (stereo not drawn) [D.1.64], the IC50 was over 1000 nM.

Consider `C[C@@H]1C[C@H](NS(=O)(=O)C2(C)CC2)C[C@@H]1c1ncc2cnc3[nH]ccc3n12` [D.1.77], for which the IC50 is 100 to 1000 nM.

Compound `C[C@@H]1C[C@H](NS(=O)(=O)N2CC(F)(F)C2)C[C@@H]1c1cnc2cnc3[nH]ccc3n12` (single isomer, unassigned) [Example #25] came in with an IC50 of under 100 nM.

`N#Cc1cnc(NC[C@H]2CC[C@@H](c3ncc4cnc5[nH]ccc5n34)C2)cn1` [D.2.15] yielded an IC50 of 100 to 1000 nM.

Compound `N#Cc1ccnc(NC[C@H]2CC[C@@H](c3nnc4cnc5[nH]ccc5n34)C2)c1` [D.2.23] gave an IC50 of over 1000 nM.

On to `O=S(=O)(CCC(F)(F)F)NC1CCCN(c2ncc3cnc4[nH]ccc4n23)C1` (stereo not drawn) [D.1.72], for which the IC50 fell in the range of 100 to 1000 nM.

As for `C[C@@H]1CCN(C(=O)CC(F)(F)F)C[C@@H]1c1ncc2cnc3[nH]ccc3n12` [H.1.2], the IC50 was under 100 nM.

As for `CC[C@@H]1C[C@@H](Oc2cnc(C#N)cn2)C[C@@H]1c1nnc2cnc3[nH]ccc3n12` (single isomer, unassigned) [AA.1.33, 5-(3-ethyl-4-(6H-pyrrolo[2,3-e][1,2,4]triazolo[4,3-a]pyrazin-1-yl)cyclopentyloxy)pyrazine-2-carbonitrile], the IC50 lay in the range of 100 to 1000 nM.

Compound `C[C@@H]1CCN(C(=O)N2CC(F)C2)C[C@@H]1c1ncc2cnc3[nH]ccc3n12` [J.2.11] showed an IC50 of under 100 nM.

Take `O=S(=O)(NC12CCC(c3ccc4cnc5[nH]ccc5n34)(CC1)CC2)C1CC1` [D.1.76]: the IC50 is 100 to 1000 nM.

The compound `CC[C@@H]1CCN(C(=O)CC#N)C[C@@H]1c1ncc2cnc3[nH]ccc3n12` (single isomer, unassigned) [AA.1.54, 3-(cis-4-ethyl-3-(6H-imidazo[1,5-a]pyrrolo[2,3-e]pyrazin-1-yl)piperidin-1-yl)-3-oxopropanenitrile] yielded an IC50 of 100 to 1000 nM.

Regarding `CC[C@@H]1C[C@@H](Oc2ccc(C#N)c(F)c2)C[C@@H]1c1nnc2cnc3[nH]ccc3n12` (single isomer, unassigned) [AA.1.103, 4-(3-ethyl-4-(6H-pyrrolo[2,3-e][1,2,4]triazolo[4,3-a]pyrazin-1-yl)cyclopentyloxy)-2-fluorobenzonitrile], the IC50 was under 100 nM.

On to `CC[C@@H]1C[C@H](NS(=O)(=O)CCN2CCC(F)(F)CC2)C[C@@H]1c1nnc2cnc3[nH]ccc3n12` [D.1.60], for which the IC50 was over 1000 nM.

As to `O=S(=O)(CCC(F)(F)F)N1CCC[C@H]2[C@H]1CCN2c1ncc2cnc3[nH]ccc3n12` (racemic) [D.1.69], the IC50 was over 1000 nM.

Regarding `O=S(=O)(NC12CCC(c3nnc4cnc5[nH]ccc5n34)(CC1)CC2)C1CCC1` [D.1.39], the IC50 lay within 100 to 1000 nM.

As for `CC[C@@H]1C[C@@H](OCc2cccc(C#N)c2)C[C@@H]1c1nnc2cnc3[nH]ccc3n12` (single isomer, unassigned) [AA.1.99, 3-((3-ethyl-4-(6H-pyrrolo[2,3-e][1,2,4]triazolo[4,3-a]pyrazin-1-yl)cyclopentyloxy)methyl)benzonitrile], the IC50 fell in the range of 100 to 1000 nM.

Compound `CCC1(S(=O)(=O)N[C@H]2C[C@@H](C)[C@@H](c3ncc4cnc5[nH]ccc5n34)C2)CC1` [D.1.83] yielded an IC50 of under 100 nM.

Consider `CC[C@@H]1C[C@H](NS(=O)(=O)CC(F)(F)F)C[C@@H]1c1nnc2cnc3[nH]ccc3n12` [K.5.1], for which the IC50 is under 100 nM.

`CC[C@@H]1C[C@@H](O)C[C@@H]1c1nnc2cnc3[nH]ccc3n12` (single isomer, unassigned) [AA.1.106, 3-ethyl-4-(6H-pyrrolo[2,3-e][1,2,4]triazolo[4,3-a]pyrazin-1-yl)cyclopentanol] returned an IC50 of over 1000 nM.

Take `O=S(=O)(CCC(F)(F)F)N1CCC2CC1CN2c1ncc2cnc3[nH]ccc3n12` (stereo not drawn) [D.1.73]: the IC50 was over 1000 nM.

Compound `CC[C@@H]1C[C@H](NS(=O)(=O)CCC(F)(F)F)CN1c1ncc2cnc3[nH]ccc3n12` [Example #27, N-((3S,5R)-5-ethyl-1-(6H-imidazo[1,5-a]pyrrolo[2,3-e]pyrazin-1-yl)pyrrolidin-3-yl)-3,3,3-trifluoropropane-1-sulfonamide] had an IC50 of over 1000 nM.

`CC[C@@H]1C[C@H](NS(=O)(=O)C2CC2)C[C@@H]1c1nnc2cnc3[nH]cc(I)c3n12` [Preparation #GGG.1, N-((1S,3R,4S)-3-ethyl-4-(8-iodo-6H-pyrrolo[2,3-e][1,2,4]triazolo[4,3-a]pyrazin-1-yl)cyclopentyl)cyclopropanesulfonamide] displayed an IC50 of 100 to 1000 nM.

For `O=C(N1CCC[C@@H](c2ncc3cnc4[nH]ccc4n23)C1)N1CCCC(F)(F)C1` [J.3.7], the IC50 fell in the range of 100 to 1000 nM.

With `C#CCCC(=O)N1CC[C@@H](C)[C@@H](c2ncc3cnc4[nH]ccc4n23)C1` [H.1.6], the IC50 is under 100 nM.

With `CC[C@@H]1C[C@H](NS(=O)(=O)NCCO)C[C@@H]1c1nnc2cnc3[nH]ccc3n12` [D.1.56], the IC50 is 100 to 1000 nM.

`C[C@@H]1C[C@H](NS(=O)(=O)N2CC(F)(F)C2)C[C@@H]1c1ncc2cnc3[nH]ccc3n12` [D.1.78] displayed a concentration for half-maximal inhibition (IC50) of under 100 nM.

With `C[C@@H]1C[C@H](NS(=O)(=O)C2CC2)C[C@@H]1c1cnc2cnc3[nH]ccc3n12` (single isomer, unassigned) [Example #24], the IC50 was under 100 nM.

Compound `CC1CCN(S(=O)(=O)CCC(F)(F)F)CCN1c1ncc2cnc3[nH]ccc3n12` (stereo not drawn) [D.1.70] returned an IC50 of 100 to 1000 nM.

Take `CC[C@@H]1C[C@H](NS(=O)(=O)C2CC2)CN1c1ncc2cnc3[nH]ccc3n12` [D.1.46]: the IC50 is under 100 nM.

For `CC[C@H]1C[C@@H](NS(=O)(=O)C2CC2)C[C@]1(F)c1nnc2cnc3[nH]ccc3n12` (single isomer, unassigned) [AA.1.44, N-(cis-4-ethyl-3-fluoro-3-(6H-pyrrolo[2,3-e][1,2,4]triazolo[4,3-a]pyrazin-1-yl)cyclopentyl)cyclo-propanesulfonamide], the IC50 lay within 100 to 1000 nM.

Regarding `C[C@@H]1CCN(C(=O)N2CC(F)(F)C2)C[C@@H]1c1ncc2cnc3[nH]ccc3n12` [J.2.5], the IC50 is under 100 nM.

Take `CC[C@@H]1C[C@H](N(CO)S(=O)(=O)C2CC2)C[C@@H]1c1nnc2cnc3[nH]cc(C)c3n12` [LL.1.2]: the IC50 is over 1000 nM.

For the compound `CC[C@@H]1C[C@@H](Oc2ccc(C#N)cn2)C[C@@H]1c1nnc2cnc3[nH]ccc3n12` (single isomer, unassigned) [AA.1.29, 6-(3-ethyl-4-(6H-pyrrolo[2,3-e][1,2,4]triazolo[4,3-a]pyrazin-1-yl)cyclopentyloxy)-nicotinonitrile], the IC50 is over 1000 nM.

Consider `CC[C@@H]1C[C@H](Nc2ccc(C#N)cn2)C[C@@H]1c1nnc2cnc3[nH]ccc3n12` [D.2.19], for which the IC50 lay in the range of 100 to 1000 nM.

Compound `C[C@@H]1CCN(C(=O)N2CCC[C@@H]2C#N)C[C@@H]1c1ncc2cnc3[nH]ccc3n12` [J.2.2] returned an IC50 of under 100 nM.

Compound `CC[C@@H]1C[C@H](NS(=O)(=O)C2CC2)C[C@@H]1c1nc(CCCO)c2cnc3[nH]ccc3n12` [Example #14, N-((1S,3R,4S)-3-ethyl-4-(3-(3-hydroxypropyl)-6H-imidazo[1,5-a]pyrrolo[2,3-e]pyrazin-1-yl)cyclopentyl)cyclopropanesulfonamide] showed an IC50 of under 100 nM.

As for `O=S(=O)(NC12CCC(c3nnc4cnc5[nH]ccc5n34)(CC1)CC2)N1CCCC1` [Example #9, N-(4-(6H-pyrrolo[2,3-e][1,2,4]triazolo[4,3-a]pyrazin-1-yl)bicyclo[2.2.2]octan-1-yl)pyrrolidine-1-sulfonamide], the IC50 fell in the range of 100 to 1000 nM.

`CC[C@@H]1C[C@H](NS(=O)(=O)C2CC2)CN1c1cnc2cnc3[nH]ccc3n12` [D.1.25] had an IC50 of under 100 nM.

Turning to `FC(F)(F)c1nc2cnc3[nH]ccc3c2n1C1CCCCC1` [D.1.52], the IC50 was in the range of 100 to 1000 nM.

`CC[C@@H]1C[C@H](OCC2CCOCC2)C[C@@H]1c1nnc2cnc3[nH]ccc3n12` (single isomer, unassigned) [AA.1.67, 1-(2-ethyl-4-((tetrahydro-2H-pyran-4-yl)methoxy)cyclopentyl)-6H-pyrrolo[2,3-e][1,2,4]triazolo[4,3-a]pyrazine] returned an IC50 of over 1000 nM.

As to `CC[C@@H]1C[C@H](NS(=O)(=O)N2CCC[C@H]2C(F)(F)F)CC1c1nnc2cnc3[nH]ccc3n12` (stereo partly drawn) [D.1.12], the IC50 is 100 to 1000 nM.

As for `CC[C@@H]1C[C@@H](Oc2ccc(C#N)cc2F)C[C@@H]1c1nnc2cnc3[nH]ccc3n12` (single isomer, unassigned) [AA.1.104, 4-(3-ethyl-4-(6H-pyrrolo[2,3-e][1,2,4]triazolo[4,3-a]pyrazin-1-yl)cyclopentyloxy)-3-fluorobenzonitrile], the IC50 was under 100 nM.

Compound `C[C@@H]1CCN(c2ncc(C#N)s2)C[C@@H]1c1ncc2cnc3[nH]ccc3n12` (single isomer, unassigned) [AA.1.11, 2-(-3-(6H-imidazo[1,5-a]pyrrolo[2,3-e]pyrazin-1-yl)-4-methylpiperidin-1-yl)thiazole-5-carbonitrile] showed an IC50 of under 100 nM.

The compound `C[C@@H]1CCN(C(=O)N2CCCCC2)C[C@@H]1c1ncc2cnc3[nH]ccc3n12` [I.1.1, ((3R,4R)-3-(6H-imidazo[1,5-a]pyrrolo[2,3-e]pyrazin-1-yl)-4-methylpiperidin-1-yl)(piperidin-1-yl)methanone] showed an IC50 of under 100 nM.
